The results in this text go back to PMC7078208, “Interaction of SHP-2 SH2 domains with PD-1 ITSM induces PD-1 dimerization and SHP-2 activation” (Communications Biology, 2020).

The subject of one assay is SHP-2-R32A. Put plainly: SHP-2 phosphatase activity, DiFMUP substrate, R32A mutant. The assay is classed as biochemical. Particulars: 4-Ahx spacer peptide; Fig. 5c. The procedure:
(§1) Catalytic activity of SHP-2 was monitored by a fluorescent assay using the substrate 6,8-difluoro-4-[…] (DiFMUP) as previously with slight modifications[38],[68]. Specifically, the phosphatase reactions were performed in 50 mM HEPES, pH 7.4, 100 mM NaCl and 10 mM DTT in 96-well black polystyrene plate, flat bottom, non-binding surface, using a final reaction volume of 100 µl. In all, 1.6 µg/ml of SHP-2-WT or mutant proteins were incubated with 20 µM DiFMUP with the indicated concentrations of phosphotyrosyl peptides or without peptide at 37 °C. For some experiments with highly SHP-2-activating peptides we used 0.5 µg/ml of SHP-2-WT so that activity measurements could fall within range. Fluorescence signal was monitored every 1 min for 3 min by a SpectraMax5 microplate reader and reaction rate was calculated by the change of fluorescence signal with time using excitation and emission wavelengths of 340 nm and 450 nm, respectively. Under these conditions, product formation was linear with respect to the time of incubation. Results were normalized against the basal activity determined for each condition in the absence of peptide and activity was calculated.

Another assay has as its system SHP-2-R138A. Put plainly: SHP-2 phosphatase activity, DiFMUP substrate, R138A mutant. The assay is classed as biochemical. Particulars: Fig. 5c. The procedure:
as §1

Another assay relates to SHP-2-WT. Put plainly: SHP-2 phosphatase activity, DiFMUP substrate. The assay is classed as biochemical.
Assay [1] concerns PD-1-SmBiT: PD-1-LgBiT complex (PD-1: PD-1 interaction) in HEK-293 cells. Put plainly: NanoBiT assay for PD-1 dimerization in HEK-293 cells. The assay is classed as cell-based, human. Particulars: HEK-293 transfected with PD-1-SmBiT, active Fyn and SHP-2, increasing amounts, Fig. 4e.

On to “TE(pY)ATIVFP-Ahx4-QTE(pY)ATIVFPS [bpITSM, bisphosphoryl ITSM-ITSM peptide with 4-Ahx spacer]”, for which the “SHP-2 activity caused by peptide” value in the assay on SHP-2-R32A and with SHP-2-R138A (4-Ahx spacer peptide) was “abrogated” in each case. In addition, the “peptide concentration at which a small induction of SHP-2 activity was observed” value in the assay with SHP-2-R138A is “above 1 µM”. The “fold lower phosphopeptide concentration for robust increase in SHP-2 activity than pITIM-pITSM” value in the assay on SHP-2-WT (DiFMUP substrate, Fig. 5a) is recorded as 1000 fold. Further, in the assay with SHP-2-WT (Supplementary Fig. 12, peptides at 20 nM), the “potency in inducing SHP-2 activation compared with bpIRS” value was “approximately three times more potent”.
Take `CC1(N)CCN(c2cnc(-c3cccc(Cl)c3Cl)c(N)n2)CC1` [SHP099]: the “effect on PD-1: PD-1 interaction” value in assay [1] is listed as “dose-dependent inhibition of PD-1: PD-1 interaction”.
